Measured values from patent US9018383B2, “Acylamino-substituted cyclic carboxylic acid derivatives and their use as pharmaceuticals” (Sanofi, priority 2009, dated 2015).

Target: human Edg-2 receptor (Homo sapiens, UniProt Q92633)
Experiment: Determination of Edg-2 receptor inhibition by FLIPR measurements (LPA-mediated calcium liberation)
Assay type: cell-based
Details: CHO cells overexpressing human Edg-2 receptor, LPA 100 nM, fluo-4 calcium fluorescence; read-out: Inhibitory concentrations IC50 for inhibition of the Edg-2 receptor
Experimental: A) Determination of Edg-2 Receptor Inhibition by Fluorescence Imaging Plate Reader (FLIPR) Measurements
The inhibition of the Edg-2 receptor (LPA1 receptor) by the compounds of the invention was quantified by the inhibitory effect on the LPA-mediated calcium liberation in a cell-based calcium fluorescence assay by use of Chinese hamster ovarian (CHO) cells in which the human Edg-2 receptor was stably overexpressed (Flp-In system, Invitrogen). […] Changes in intracellular calcium were determined by fluorescence measurement with the calcium-sensitive dye fluo-4 (Invitrogen) in a fluorescence imaging plate reader (FLIPR, […]).
CHO cells stably overexpressing the human Edg-2 receptor were seeded (40.000 per well) in black clear-bottomed poly-D-lysine-coated 96 well plates (Becton Dickinson, Biocoat cellware) approximately 18-24 h prior to the experiments. Cells were grown in an incubator at 37° C., 5% carbon dioxide and 95% humidity in cell culture media based on F-12 glutamax media (Gibco, #31765) supplemented with 1% (vol/vol) penicilline/streptomycine (PAN, #P06-07100), 10% (vol/vol) fetal calf serum (FCS, PAA, #A15-151) and hygromycin B (Invitrogen, #10687-010) 300 mg/l (final concentrations).
Prior to the FLIPR experiment, cells were loaded with fluo-4 acetoxymethyl ester (fluo-4 AM, Invitrogen, #F14202) for 60 min in an incubator at 37° C., 5% carbon dioxide and 95% humidity in dye-loading buffer consisting of Hanks' Balanced Salt Solution (HBSS, Invitrogen, #14065049) supplemented with fluo-4 AM at 2 μM (all data given for final concentration), Pluronic® F-127 0.05% (vol/vol) (Invitrogen, #P-3000 MP), HEPES 20 mM (Gibco, #15630), probenecid 2.5 mM (Sigma, #P-8761) and bovine serum albumin 0.05% (BSA, Sigma, #A-6003), adjusted to pH 7.5 with sodium hydroxide. During cell loading, fluo-4 AM is cleaved by intracellular esterase resulting in trapping of the dye fluo-4 within the cells. Loading was terminated by washing of the cells in a cell washer (Tecan Power washer) three times with the buffer specified afore but without fluo-4 AM and BSA. This latter buffer was also used as the buffer in the subsequent cell fluorescence measurements.
The dye-loaded and washed cells were pre-incubated for approximately 5 min with various concentrations of the test compound added as a solution in DMSO (0.3% vol/vol maximum final concentration of DMSO), or with DMSO in the respective concentration only (positive control). Subsequent addition of LPA (18:1, 1-oleoyl-sn-glycerol 3-phosphate; 100 nM final concentration) leads to liberation of intracellular calcium from internal stores resulting in a large transient increase of the fluo-4 fluorescence signal which was monitored over approximately 3 min. The percent inhibition caused by the test compound was determined from the maximum fluorescence response after LPA addition to cells pre-incubated with the compound as compared to the maximum fluorescence response after LPA addition to cells pre-incubated with DMSO only. All fluorescence values were corrected for the baseline fluorescence values obtained with cells which were pre-incubated with DMSO only and were not treated with LPA (baseline control). All measurements were performed in triplicate. From the percent inhibitions the inhibitory concentration IC50 was determined.

human Edg-2 receptor, sequence (Q92633 whole entry): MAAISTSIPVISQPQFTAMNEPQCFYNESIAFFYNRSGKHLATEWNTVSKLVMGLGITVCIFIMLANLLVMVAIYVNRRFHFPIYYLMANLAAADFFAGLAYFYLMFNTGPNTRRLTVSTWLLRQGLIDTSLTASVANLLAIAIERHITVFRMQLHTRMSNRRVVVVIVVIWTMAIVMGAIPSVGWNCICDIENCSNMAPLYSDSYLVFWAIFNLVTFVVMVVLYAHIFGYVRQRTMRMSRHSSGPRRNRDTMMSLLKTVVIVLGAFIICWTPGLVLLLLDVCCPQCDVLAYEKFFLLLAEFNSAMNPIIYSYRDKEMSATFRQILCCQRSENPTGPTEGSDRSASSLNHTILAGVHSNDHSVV

| IC50 [nM] | SMILES |
| --- | --- |
| < 100 | COc1ccc(C(=O)N[C@@]2(C(=O)O)C[C@@H]3CC[C@H]2O3)cc1OCCc1cccc(C)c1 (racemic) [Example 126, (1R,2S,4S)-2-[4-Methoxy-3-(2-m-tolyl-ethoxy)-benzoylamino]-7-oxa-bicyclo[2.2.1]heptane-2-carboxylic acid and (1S,2R,4R)-2-[4-methoxy-3-(2-m-tolyl-ethoxy)-benzoylamino]-7-oxa-bicyclo[2.2.1]heptane-2-carboxylic acid] |
| 100 to 1000 | COc1ccc(C(=O)NC2(C(=O)O)CCCC2OCc2ccccc2)cc1OCCc1cccc(C)c1 (single isomer, unassigned) [Example 66, 2-Benzyloxy-1-[4-methoxy-3-(2-m-tolyl-ethoxy)-benzoylamino]-cyclopentanecarboxylic acid] |
| 100 to 1000 | COc1ccc(C(=O)NC2(C(=O)O)CCCCCC2)cc1OCCc1cc(C)ccc1F [Example 1, 1-{3-[2-(2-Fluoro-5-methyl-phenyl)-ethoxy]-4-methoxy-benzoylamino}-cycloheptanecarboxylic acid] |
| < 100 | COc1ccc(C(=O)NC2(C(=O)O)CCCCCC2)cc1OCCc1cccc(C)c1 [Example 2, 1-[4-Methoxy-3-(2-m-tolyl-ethoxy)-benzoylamino]-cycloheptanecarboxylic acid] |
| < 100 | COc1ccc(C(=O)NC2(C(=O)O)CCCCCC2)cc1OCCc1cc(Cl)ccc1F [Example 3, 1-{3-[2-(5-Chloro-2-fluoro-phenyl)-ethoxy]-4-methoxy-benzoylamino}-cycloheptanecarboxylic acid] |
| 100 to 1000 | COc1ccc(C(=O)NC2(C(=O)O)CCCCCC2)cc1OCCc1c(C)n[nH]c1C [Example 4] |
| < 100 | COc1ccc(C(=O)NC2(C(=O)O)CCCCCC2)cc1OCCc1cc(OC(F)(F)F)ccc1F [Example 5] |
| 100 to 1000 | COc1ccc(C(=O)NC2(C(=O)O)CCCCCC2)cc1OCCc1cccs1 [Example 6] |
| < 100 | COc1cccc(CCOc2cc(C(=O)NC3(C(=O)O)CCCCCC3)ccc2OC)c1 [Example 7] |
| < 100 | COc1ccc(C(=O)NC2(C(=O)O)CCCCCC2)cc1OCCc1ccccc1 [Example 8] |
| < 100 | COc1ccc(C(=O)NC2(C(=O)O)CCCCCC2)cc1OCC(C)c1ccccc1 (stereo not drawn) [Example 9] |
| < 100 | COc1ccc(C(=O)NC2(C(=O)O)CCCCCC2)cc1OCCc1cccc(Cl)c1 [Example 10] |
| 100 to 1000 | COc1ccc(C(=O)NC2(C(=O)O)CCCCCC2)cc1OCCc1ccsc1 [Example 11, 1-{3-[2-(thiophen-3-yl)-ethoxy]-4-methoxy-benzoylamino]-cycloheptanecarboxylic acid] |
| 100 to 1000 | COc1ccc(C(=O)NC2(C(=O)O)CCCCCC2)cc1OCC1CC=CCC1 (stereo not drawn) [Example 12] |
| < 100 | COc1ccc(C(=O)NC2(C(=O)O)CCCCCC2)cc1OCCc1ccccc1F [Example 13] |
| 100 to 1000 | CCC(COc1cc(C(=O)NC2(C(=O)O)CCCCCC2)ccc1OC)c1ccccc1 (stereo not drawn) [Example 14] |
| 1000 to 30000 | COc1ccc(C(=O)NC2(C(=O)O)CCCCCC2)cc1OCCc1ccc(Cl)cc1Cl [Example 15] |
| < 100 | COc1ccc(C(=O)NC2(C(=O)O)CCCCCC2)cc1OCCc1c(F)cccc1Cl [Example 16] |
| < 100 | COc1ccc(C(=O)NC2(C(=O)O)CCCCCC2)cc1OCCc1cc(Cl)ccc1Cl [Example 17] |
| 100 to 1000 | COc1ccc(C(=O)NC2(C(=O)O)CCCCCC2)cc1OCCc1cc(C)ccc1C [Example 18] |
| 100 to 1000 | COc1ccc(C(=O)NC2(C(=O)O)CCCCCC2)cc1OCCc1ccccc1C [Example 19] |
| < 100 | COc1ccc(C(=O)NC2(C(=O)O)CCCCCC2)cc1OCCc1cc(F)ccc1F [Example 20] |
| 100 to 1000 | COc1ccc(C(=O)NC2(C(=O)O)CCCCCC2)cc1OCCc1cccc(Cl)c1F [Example 21] |
| < 100 | COc1ccc(C(=O)NC2(C(=O)O)CCCCCC2)cc1OCC1(c2ccccc2)COC1 [Example 22] |

| IC50 [nM] | SMILES |
| --- | --- |
| 100 to 1000 | COc1ccc(C(=O)NC2(C(=O)O)CCCCCCC2)cc1OCCc1cccc(C)c1 [Example 23, 1-[4-Methoxy-3-(2-m-tolyl-ethoxy)-benzoylamino]-cyclooctanecarboxylic acid] |
| 100 to 1000 | COc1ccc(C(=O)NC2(C(=O)O)CCCCCCC2)cc1OCCc1cc(C)ccc1F [Example 24, 1-{3-[2-(2-Fluoro-5-methyl-phenyl)-ethoxy]-4-methoxy-benzoylamino}-cyclooctanecarboxylic acid] |
| 1000 to 30000 | COc1ccc(C(=O)NC2(C(=O)O)CCCOCC2)cc1OCCc1cccc(C)c1 (stereo not drawn) [Example 25, 4-[4-Methoxy-3-(2-m-tolyl-ethoxy)-benzoylamino]-oxepane-4-carboxylic acid] |
| < 100 | COc1ccc(C(=O)NC2(C(=O)O)CCCC(C)CC2)cc1OCCc1cccc(C)c1 (stereo not drawn) [Example 26] |
| < 100 | COc1ccc(C(=O)NC2(C(=O)O)CCC(C(F)(F)F)CC2)cc1OCCc1cccc(C)c1 (stereo not drawn) [Example 28] |
| < 100 | COc1ccc(C(=O)NC2(C(=O)O)CCC(C(C)C)CC2)cc1OCCc1cccc(C)c1 (stereo not drawn) [Example 29] |
| < 100 | CCC1CCC(NC(=O)c2ccc(OC)c(OCCc3cccc(C)c3)c2)(C(=O)O)CC1 (stereo not drawn) [Example 30] |
| < 100 | COc1ccc(C(=O)NC2(C(=O)O)CC3CCC(C3)C2)cc1OCCc1cccc(C)c1 (stereo not drawn) [Example 31] |
| 1000 to 30000 | COc1ccc(C(=O)NC2(C(=O)O)CCCCC2C)cc1OCCc1cccc(C)c1 (stereo not drawn) [Example 32] |
| < 100 | COc1ccc(C(=O)NC2(C(=O)O)CCC(C)C2)cc1OCCc1cccc(C)c1 (stereo not drawn) [Example 33] |
| 1000 to 30000 | COc1ccc(C(=O)NC2(C(=O)O)CCC2)cc1OCCc1cccc(C)c1 [Example 34] |
| 1000 to 30000 | COc1ccc(C(=O)NC2(C(=O)O)CCCC2)cc1OCCc1cccc(C)c1 [Example 35] |
| 100 to 1000 | COc1ccc(C(=O)NC2(C(=O)O)CCSCC2)cc1OCCc1cccc(C)c1 [Example 36] |
| 1000 to 30000 | COc1ccc(C(=O)NC2(C(=O)O)CCOCC2)cc1OCCc1cccc(C)c1 [Example 37] |
| 100 to 1000 | COc1ccc(C(=O)NC2(C(=O)O)CCCCC2)cc1OCCc1cccc(C)c1 [Example 38] |
| 1000 to 30000 | COc1ccc(C(=O)NC2(C(=O)O)C[C@H]3CC[C@]2(C)C3(C)C)cc1OCCc1cccc(C)c1 (stereo partly drawn) [Example 39] |
| 100 to 1000 | C=CC1CC1(NC(=O)c1ccc(OC)c(OCCc2cccc(C)c2)c1)C(=O)O (stereo not drawn) [Example 40] |
| < 100 | CCC1CC1(NC(=O)c1ccc(OC)c(OCCc2cccc(C)c2)c1)C(=O)O (stereo not drawn) [Example 41] |
| < 100 | COc1ccc(C(=O)N[C@]2(C(=O)O)CC[C@@H](C)CC2)cc1OCCc1cccc(C)c1 [Example 43, trans-1-[4-Methoxy-3-(2-m-tolyl-ethoxy)-benzoylamino]-4-methyl-cyclohexanecarboxylic acid] |
| 100 to 1000 | COc1ccc(C(=O)NC2(C(=O)O)CCC(F)CC2)cc1OCCc1cccc(C)c1 (stereo not drawn) [Example 44] |
| 100 to 1000 | COc1ccc(C(=O)NC2(C(=O)O)CCC(C)(C)CC2)cc1OCCc1cccc(C)c1 [Example 45] |
| < 100 | COc1ccc(C(=O)NC2(C(=O)O)CCCC(C)CC2)cc1OCCc1cccc(C)c1 (stereo not drawn) [Example 46] |
| < 100 | COc1ccc(C(=O)NC2(C(=O)O)CC3CCC(C3)C2)cc1OCCc1cccc(C)c1 (stereo not drawn) [Example 47] |
| 1000 to 30000 | COc1ccc(C(=O)NC2(C(=O)O)CCCCC2C)cc1OCCc1cccc(C)c1 (stereo not drawn) [Example 48] |
